Here are results for 2 compounds from patent US10426751B2, “Allosteric activators for treatment of phenylketonuria” (MCMASTER UNIVERSITY, priority 2015, dated 2019).

Residue numbers refer to the chain shown, from its start.

Common to all, as to format: biochemical
The target in test [1] is T1, WT-PAH (Homo sapiens, UniProt P00439).
T1 construct: made in house; the paragraph itself says 'eukaryotic cell cultures' (pMAL vector, Martinez laboratory, University of Bergen)
T1 sequence (P00439 1-452): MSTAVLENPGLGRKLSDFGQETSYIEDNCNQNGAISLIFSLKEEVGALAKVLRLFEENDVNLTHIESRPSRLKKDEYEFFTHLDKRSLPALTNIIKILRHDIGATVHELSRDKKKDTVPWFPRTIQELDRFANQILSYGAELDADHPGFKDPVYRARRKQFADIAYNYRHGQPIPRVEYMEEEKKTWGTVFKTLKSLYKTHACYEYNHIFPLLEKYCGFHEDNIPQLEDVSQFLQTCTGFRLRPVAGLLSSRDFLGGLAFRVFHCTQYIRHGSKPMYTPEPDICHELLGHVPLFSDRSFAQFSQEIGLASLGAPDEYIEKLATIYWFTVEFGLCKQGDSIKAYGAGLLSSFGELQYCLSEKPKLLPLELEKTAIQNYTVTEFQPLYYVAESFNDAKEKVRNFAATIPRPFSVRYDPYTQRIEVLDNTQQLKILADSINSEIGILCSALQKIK
Kind of test: Chaperone (refolding) assay: PAH activity after dilution from 6.0 M to 0.5 M GndCl. Particulars: ligand 20 μM. The procedure:
(§1) For instance, a recovery of 50% of residual enzyme activity was achieved without ligand when PAH was incubated in 8.0 M urea after its dilution to 0.5 M urea to trigger protein refolding. In order to further reduce enzyme reversibility, the recovery of PAH activity was subsequently assessed when it was incubated using 6.0 M GndCl for 10 min and subsequently diluted to 0.5 M GndCl in the presence or absence of screen-positive ligands (20 μM) in enzyme reaction buffer with PAH activity measurements performed by CE as described previously. […] Two lead compounds and several analogs of SA were subsequently tested using two different mutants of PAH (I65T and R261Q) without chemical denaturants after the two-tiered screening.

The target in test [2] is T2, I65T PAH mutant (Homo sapiens, UniProt P00439, I65T).
T2 construct: made in house; the paragraph itself says 'eukaryotic cell cultures' (pMAL vector)
T2 sequence (P00439 1-452 I65T): T1 sequence (P00439 1-452) with I65T
Kind of test: PKU-mutant activity enhancement without chemical denaturants, CE-UV. Particulars: ligand 20 μM, no denaturant. As to the method: (§2) Expression of recombinant human WT-PAH and two PAH mutants ([…]) as fusion protein with maltose-binding protein in […] using pMAL expression vector was performed by the Martinez laboratory at the University of Bergen as described in Svebak et al., Biochem. J., 1995, 306, 589-597. Briefly, purification of the fusion proteins expressed in the pMAL vector system was performed using affinity chromatography followed by size-exclusion chromatography to remove low molecular weight components. Subsequently, the fusion proteins were cleaved by the restriction protease factor Xa and then phosphorylated by cyclic adenosine monophosphate (cAMP)-dependent protein kinase. The two clinically relevant PAH mutants, I65T and R261Q comprise single-point mutations in the regulatory and catalytic domain, respectively which are associated with highly variable phenotypes ranging from mild to classical PKU. For instance, patients with R261Q genotypes are reported to have inconsistent responses to BH4 therapy. In this work, I65T and R261Q PAH mutants were measured to have residual catalytic activities of (35±1)% and (5±0.5)% relative to WT PAH under standardized conditions (i.e., enzyme concentrations, assay buffer etc.), respectively. Stock solutions of WT-PAH and PAH mutants were prepared in enzyme reaction buffer (20 mM HEPES pH 7.0, 200 mM NaCl), and divided into separate 10 μL aliquots in 0.5 mL sterilized centrifuge tubes prior to storage at −80° C. Note that all enzyme assays were performed on aliquots of frozen enzymes thawed slowly in the fridge prior to daily use.
(§3) Tetrameric human phenylalanine hydroxylase (PAH) enzyme kinetic assays were performed off-line under standardized conditions prior to quantification of Tyr formation by CE with UV detection. Enzyme assays were performed by first mixing together Phe (1 mM), catalase (100 nM) and PAH (0.25 μM/subunit) in a reaction buffer (20 mM HEPES and 200 mM NaCl, pH 7.0) that were equilibrated at 25° C. for 4 min. Then, ferrous (Fe^2+) ammonium sulfate (100 μM) was added to the solution for 1 min and the reaction was subsequently initiated by addition of BH4 ([…]) with DTT (5 mM) using a total volume of 100 μL. The reaction mixture was then vortexed for 60 s followed by sonication for 2 min prior to centrifugation for 10 s at 4 g and storage in a refrigerator (+4° C.). An aliquot (20 μL) was withdrawn from the quenched enzyme reaction and placed in a micro vial containing Me-Tyr as IS (100 μM) prior to CE analysis. The stability of the quenched enzyme reaction was confirmed by intermittent analysis of PAH activity over 6 h at room temperature, and no significant changes in the Tyr/IS or Phe/Tyr response ratio were measured. Enzymatic reactions were performed for both WT-PAH and two PAH mutants by pre-equilibrating each ligand for 10 min prior to addition of ferrous ion and BH4/DDT as described in enzyme reaction protocol in order to assess for ligand-induced PAH inhibition or activation.
as §1

The target of test [3] is T3, R261Q PAH mutant (Homo sapiens, UniProt P00439, R261Q).
T3 construct: made in house; the paragraph itself says 'eukaryotic cell cultures' (pMAL vector)
T3 sequence (P00439 1-452 R261Q): T1 sequence (P00439 1-452) with R261Q
The description is as above. Particulars: ligand 20 μM, no denaturant. The procedure:
as §2, §3, §1

As for `Nc1c(-c2ccc3ccccc3n2)c2ccc([N+](=O)[O-])cc2c(=O)n1Cc1ccccc1` [compound III, 3-amino-2-benzyl-7-nitro-4-(2-quinolyl)-1,2-dihydroisoquinolin-1-one], the “increase in WT-PAH activity after refolding relative to ligand-free apo-PAH” value in test [1] is “about 5 fold”. The “activity enhancement of I65T PAH mutant” value in test [2] (listed as HI) is about 1.5 fold. For the same compound, in test [3] (listed as HI), the “activity enhancement of R261Q PAH mutant” value was about 1.5 fold.
For `Cc1ccnc(-n2c(=S)[nH]c3sc(C)c(C)c3c2=O)c1` [compound IV, 5,6-dimethyl-3-(4-methyl-2-pyridinyl)-2-thioxo-2,3-dihydrothieno[2,3-d] pyrimidin-4(1H)-one], the “increase in WT-PAH activity after refolding relative to ligand-free apo-PAH” value in test [1] is on record as about 1.5 fold. For the same compound, the “activity enhancement of I65T PAH mutant” value in test [2] is on record as about 1.5 fold. Besides, the “activity enhancement of R261Q PAH mutant” value in test [3] is about 1.5 fold.
